# Legend:
# Format in all cases: biochemical
# MMP 13 = MMP 13 (Homo sapiens, UniProt P45452); experiment: MMP 13 inhibition (standard/manual test)
# MMP 1 = biological target: T1, MMP 1 (Homo sapiens, UniProt P03956); experiment: In Vitro Collagenase Assay (human recombinant fibroblast collagenase, fluorogenic peptide substrate)
# T1 construct: human recombinant fibroblast collagenase (truncated mw=18,828, WAR, Radnor)
# T1 sequence (P03956 100-269 limits assumed): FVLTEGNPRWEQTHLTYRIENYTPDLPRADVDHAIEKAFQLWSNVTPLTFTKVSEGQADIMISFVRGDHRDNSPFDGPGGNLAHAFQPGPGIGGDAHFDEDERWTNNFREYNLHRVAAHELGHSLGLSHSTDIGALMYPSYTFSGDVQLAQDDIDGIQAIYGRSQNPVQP
# Protocol: The assay is based on the cleavage of a peptide substrate ((Dnp-Pro-Cha-Gly-Cys(Me)-His-Ala-Lys(NMa)-NH2), Peptide International Inc.) by collagenase releasing the fluorescent NMa group which is quantitated on the fluorometer. Dnp quenches the NMa fluorescence in the intact substrate. […] Substrate is dissolved in methanol and stored frozen in 1 mM aliquots. […] For the assay, substrate is dissolved in HCBC buffer to a final concentration of 10 μM and collagenase to a final concentration of 5 nM. Compounds are dissolved in methanol, DMSO, or HCBC. The methanol and DMSO are diluted in HCBC to <1.0%. Compounds are added to the 96 well plate containing enzyme and the reaction is started by the addition of substrate.
# The slope of the line is calculated and represents the reaction rate.
# The mean (x±sem) of the control rate is calculated and compared for statistical significance (p<0.05) with drug-related rates using Dunnett's multiple comparison test.
# TACE = biological target: T2, TACE (Homo sapiens, UniProt P78536); experiment: Procedure for Measuring TACE Inhibition (fluorescent peptidyl substrate); settings: 1 micromolar
# T2 construct: purchased Immunex
# T2 sequence (P78536 215-824): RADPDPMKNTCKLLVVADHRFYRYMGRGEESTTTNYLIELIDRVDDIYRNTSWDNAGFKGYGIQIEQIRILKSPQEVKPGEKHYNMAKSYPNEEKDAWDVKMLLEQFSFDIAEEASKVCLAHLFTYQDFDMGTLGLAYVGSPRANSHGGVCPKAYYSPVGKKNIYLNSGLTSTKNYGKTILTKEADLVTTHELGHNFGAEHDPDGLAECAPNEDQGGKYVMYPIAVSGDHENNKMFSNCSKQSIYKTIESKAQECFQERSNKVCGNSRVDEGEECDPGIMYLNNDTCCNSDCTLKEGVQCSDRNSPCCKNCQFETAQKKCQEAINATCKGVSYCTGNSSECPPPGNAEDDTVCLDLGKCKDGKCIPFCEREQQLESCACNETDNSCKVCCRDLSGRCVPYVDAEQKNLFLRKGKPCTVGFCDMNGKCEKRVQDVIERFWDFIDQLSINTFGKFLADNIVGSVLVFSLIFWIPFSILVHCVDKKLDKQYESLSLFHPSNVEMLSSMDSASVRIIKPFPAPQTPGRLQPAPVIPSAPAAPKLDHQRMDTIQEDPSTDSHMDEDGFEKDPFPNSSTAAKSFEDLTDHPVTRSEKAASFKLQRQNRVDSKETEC
# MMP 9 = biological target: T3, MMP 9 (Homo sapiens, UniProt P14780); experiment: In Vitro Gelatinase Assay (human neutrophil gelatinase B, thiopeptide substrate/DTNB)
# T3 construct: from tissue; host or cells: human neutrophils
# T3 sequence (P14780 94-707): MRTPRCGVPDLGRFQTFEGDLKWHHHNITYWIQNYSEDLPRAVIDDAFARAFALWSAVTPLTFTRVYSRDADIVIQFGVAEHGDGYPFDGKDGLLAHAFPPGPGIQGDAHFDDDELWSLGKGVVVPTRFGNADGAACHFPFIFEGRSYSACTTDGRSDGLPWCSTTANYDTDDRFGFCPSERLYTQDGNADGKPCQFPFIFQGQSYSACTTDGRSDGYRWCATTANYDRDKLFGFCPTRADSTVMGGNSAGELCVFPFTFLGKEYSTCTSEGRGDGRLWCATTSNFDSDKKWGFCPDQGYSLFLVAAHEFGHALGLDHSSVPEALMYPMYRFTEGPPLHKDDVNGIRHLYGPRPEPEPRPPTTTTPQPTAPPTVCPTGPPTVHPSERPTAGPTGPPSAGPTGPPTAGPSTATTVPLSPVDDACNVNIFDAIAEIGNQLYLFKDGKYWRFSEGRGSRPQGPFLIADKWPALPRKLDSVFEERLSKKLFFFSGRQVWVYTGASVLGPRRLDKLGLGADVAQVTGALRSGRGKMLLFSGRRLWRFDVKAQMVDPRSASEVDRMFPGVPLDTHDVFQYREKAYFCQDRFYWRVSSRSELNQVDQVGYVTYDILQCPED
# Protocol: The assay is based on the cleavage of the thiopeptide substrate ((Ac-Pro-Leu-Gly(2 Mercapto-4 methyl-pentanoyl)-Leu-Gly-OEt), Bachem Bioscience) by the enzyme, gelatinase, releasing the substrate product which reacts colorimetrically with DTNB ((5,5′-dithio-bis(2-nitro-benzoic acid)). The enzyne activity is measured by the rate of the color increase. The thiopeptide substrate is made up fresh as a 20 mM stock in 100% DMSO and the DTNB is dissolved in 100% DMSO as a 100 mM stock and stored in dark at room temperature. Both the substrate and DTNB are diluted together to 1 mM with substrate buffer (50 mM HEPES pH 7.5, 5 mM CaCl2) before use.
# The increase in OD405 is plotted and the slope of the line is calculated which represents the reaction rate.
# The mean (x±sem) of the control rate is calculated and compared for statistical significance (p<0.05) with drug-treated rates using Dunnett's multiple comparison test.
MMP 13 % inhibition at 1 micromolar (MMP 13) [%],MMP 1 % inhibition at 1 micromolar (MMP 1) [%],TACE % inhibition at 1 micromolar (TACE) [%],MMP 9 % inhibition at 1 micromolar (MMP 9) [%],SMILES,IC50 (MMP 13; read-out: MMP 13 IC 50) [nM],IC50 (MMP 1; read-out: MMP 1 IC 50) [nM],IC50 (MMP 9; read-out: MMP 9 IC 50) [nM]
39.5,47.1,14.9,36.9,"Cc1occc1S(=O)(=O)C(C)(Cc1ccc(OCCN2CCCCC2)cc1)C(=O)NO (stereo not drawn) [Example 44, 2-Methyl-2-(2-methyl-furan-3-sulfonyl)3-[4-(2-piperidin-1-yl-ethoxy)phenyl]-propionic acid hydroxamide]",,,
84.7,78.9,1.4,79.12,"CCCCCCCCS(=O)(=O)C(Cc1ccc(OCCN2CCCCC2)cc1)C(=O)NO (stereo not drawn) [Example 46, 2-(octane-1-sulfonyl)-3-[4-(2-piperidin-yl-ethoxy)-phenyl]propionic acid hydroxamide]",,,

SMILES,MMP 13 % inhibition at 1 micromolar (MMP 13) [%],MMP 1 % inhibition at 1 micromolar (MMP 1) [%],TACE % inhibition at 1 micromolar (TACE) [%],MMP 9 % inhibition at 1 micromolar (MMP 9) [%],IC50 (MMP 13; read-out: MMP 13 IC 50) [nM],IC50 (MMP 1; read-out: MMP 1 IC 50) [nM],IC50 (MMP 9; read-out: MMP 9 IC 50) [nM]
"COc1ccc(S(=O)(=O)C2(C(=O)NO)CCN(CC=C(C)C)CC2)cc1 [Example 89, 4-(4methoxy-benzene-sulfonyl)-1-(3-methyl-but-2-enyl)-piperdine-4-carboxylic acid hydroxamide]",,,49,,7,1390,38.6
